Values of other authors in patent US20240109913A1, “NEW SPIRO[3H-INDOLE-3,2'-PYRROLIDIN]-2(1H)-ONE COMPOUNDS AND DERIVATIVES AS MDM2-P53 INHIBITORS” (Boehringer Ingelheim International GmbH, priority 2014, published 2024).

How the values were obtained:
[1] = system: human acute myeloid leukemia (AML) and human prostate tumor xenograft models harboring p53 wild-type; conditions: p53 wild-type (Tovar et al. 2013)
[2] = system: p53 wild-type vs. p53 mutant cell lines; conditions: in vitro (Carol et al. 2013)
[3] = system: acute lymphoblastic leukemia (ALL) xenograft models with mixed-lineage leukemia (MLL) rearrangement; conditions: ALL xenograft models with MLL rearrangement (Carol et al. 2013)
[4] = system: solid tumor xenograft models; conditions: solid tumor xenograft models (Carol et al. 2013)

## CCOc1cc(C(C)(C)C)ccc1C1=N[C@@](C)(c2ccc(Cl)cc2)[C@@](C)(c2ccc(Cl)cc2)N1C(=O)N1CCN(CCCS(C)(=O)=O)CC1 [RG7112]
[1]
  antiproliferative and proapoptotic activity: antiproliferative and proapoptotic activity of RG7112 has been observed

## CCOc1cc(C(C)(C)C)ccc1C1=N[C@@](C)(c2ccc(Cl)cc2)[C@@](C)(c2ccc(Cl)cc2)N1C(=O)N1CCN(CCCS(C)(=O)=O)CC1 [RG-7112]
[2]
  cytotoxic activity, median IC50: lower median IC50 values for p53 wild-type vs. p53 mutant cell lines
[3]
  efficacy in ALL xenograft models: particularly efficacious
[4]
  tumor growth inhibition: induced tumor growth inhibition
